Source: patent US20160235781A1, “DIURETIC INDUCED ALTERATIONS OF PLASMA VOLUME” (MAST THERAPEUTICS, INC., priority 2013, published 2016)

Test: Example 2: diuretic induced hemo-concentration patient, transthoracic echocardiography and body weight
Type: in vivo, human
Protocol: A person weighing 180 pounds, with a history of a prior myocardial infarction, was hospitalized with fatigue, peripheral edema and difficulty in breathing. […] Diuretic therapy effected by administering IV bolus doses of 150 mg furosemide every 12 hours was started. Their body weight measurement after 48 hours of furosemide treatment was 172 pounds.
The patient was continued on furosemide and a 15% solution of purified poloxamer 188 in citrate buffered saline was administered at a dose of 250 mg/kg as an IV infusion over a period of 1 hour. Twenty-four hours later, their body weight was 168 pounds.

NS(=O)(=O)c1cc(C(=O)O)c(NCc2ccco2)cc1Cl [furosemide]
body weight (after 48 hours of furosemide 150 mg IV bolus every 12 hours, 180 pounds at admission): 172 pounds
ejection fraction (after 48 hours of furosemide alone, 30% at admission): 29%
